Reference: US20250367132A1, “SOLID LIPID NANOPARTICLES FOR ENCAPSULATION AND DELIVERY OF BIOACTIVE COMPOUNDS AND METHODS OF MAKING THE SAME” (Yubeck, Inc., priority 2024, published 2025)

Key:
[1] = Dynamic light scattering (DLS): mean particle size and polydispersity index; format: physicochemical
Experimental: SLNs are characterized by particle size distribution, polydispersity index (PDI), surface charge (zeta potential), encapsulation efficiency (EE %), and loading capacity (LC %), all of which influence their stability, bioavailability, and controlled release properties. Particle size distribution is measured using dynamic light scattering (DLS), nanoparticle tracking analysis (NTA), or any equivalent method, ensuring SLN sizes range from 10 nm approximately 1000 nm. PDI, measured by DLS or NTA indicates uniformity of particle size distribution. Zeta potential, measured using […], electrophoretic light scattering (ELS), or an equivalent method, must have an absolute value of ≥25 mV, ensuring sufficient electrostatic repulsion to maintain colloidal stability. Encapsulation efficiency (EE %) and loading capacity (LC %) are measured using UV-Vis Spectroscopy, high performance liquid chromatography, or liquid chromatography mass spectrometry (LC-MS), amino acid analysis (AAA), or any equivalent method, with target values defined for each bioactive compound.
An example of the manufacturing process of whole Spirulina SLNs is disclosed below. In accordance with an aspect of the present invention, palmitic acid is dissolved in 100% ethanol (1.5 mg/mL) and heated to 70° C. Natural and sustainable ingredients that can be used as alternatives to palmitic acid, include stearic acid, behenic acid, lauric acid, cetyl alcohol, cocoa butter, shea butter, carnauba wax, candelilla wax, beeswax, and glycerol monostearate (GMS). Other natural lipids, such as oleic acid, linoleic acid, alpha-linolenic acid, gamma-linolenic acid, triglycerides such as medium-chain triglycerides (MCTs) or long-chain triglycerides (LCTs), and natural oils such as coconut oil, olive oil, and sunflower oil. Additional naturally derived lipid components such as 1-monolaurin, phosphatidylcholine, and phosphatidylethanolamine may also be used. […] The Spirulina SLNs are quantified using […] to measure the mean particle, PDI, and zeta potential. […]

[2] = cited from earlier work

Molecule	PDI ([1]; non-encapsulated, in solution)	PDI ([1]; unencapsulated, before SLN fabrication)	mean particle size (initial diameter) ([1]; unencapsulated, in ethanol, before SLN fabrication)	Acceptable Daily Intake (ADI) ([2]; FDA, color additive petitions)	No Observed Effect Level (NOEL) ([2]; GRAS submission)
C=C1CC[C@H](O)C/C1=C/C=C1\CCC[C@]2(C)[C@@H]([C@H](C)CCCC(C)C)CC[C@@H]12 [vitamin D3, cholecalciferol]	0.10±0.01%	10.17±2.26	124.6±0.1 nm		
phycocyanin				1.0-1.8 g/p/d	108-184.5 g/p/d
